Consider 13 molecules from US20260274892A1, “MACROCYCLIC BROAD SPECTRUM ANTIBIOTICS” (RQx Pharmaceuticals, Inc., priority 2017, published 2026).

Structures are written as SMILES.

In test [1] the test system is Escherichia coli ATCC 25922. Briefly: Minimum inhibitory concentration (MIC), CLSI broth micro-dilution, E. coli. The format is cell-based. The following applies: Escherichia coli, ATCC25922, 22 h, Table 6, cation adjusted Mueller Hinton Broth + 0.002% Tween-80, 35° C. The gist of the method: (§1)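 Antibacterial potency is measured as MIC by the CLSI broth dilution method. Bacteria at OD600 0.0005 in Tween-80-supplemented cation-adjusted Mueller Hinton broth face ten twofold compound dilutions for 22 h at 35° C.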
On the technique in general: Dilution methods test growth across graded concentrations, often in twofold steps.

Test [2] has as its system Methicillin Resistant Staphylococcus aureus strain USA 200. As to the kind of experiment: Minimum inhibitory concentration (MIC), CLSI broth micro-dilution, S. aureus. Type of test: cell-based. The following applies: Staphylococcus aureus, MRSA / USA200; Table 6; MRSA USA 200; cation adjusted Mueller Hinton Broth + 0.002% Tween-80; 35° C., 22 hours. The gist of the method:
as §1

In the case of `CCCCc1ccc(C#Cc2nc(C)c(C(=O)N[C@@H](CCN)C(=O)N(C)[C@@H]3C(=O)N[C@@H](C)C(=O)N[C@H](C(=O)NCC#N)Cc4ccc(OCCN)c(c4)-c4cc3ccc4OCCN)c(C)n2)cc1` (racemic) [Compound 308, rac-(8S,11S,14S)-3,18-bis(2-aminoethoxy)-N-(cyanomethyl)-11-methyl-14-[methyl-[rac-(2S)-4-amino-2-[[2-[2-(4-butylphenyl)ethynyl]-4,6-dimethyl-pyrimidine-5-carbonyl]amino]butanoyl]amino]-10,13-dioxo-9,12-diazatricyclo[13.3.1.12,6]icosa-1(18),2(20),3,5,15(19),16-hexaene-8-carboxamide], the results for the MIC in test [1] and in test [2] were 0.096 µM and 0.012 µM, respectively.
For `Cc1nc(C#Cc2ccccc2)nc(C)c1C(=O)N[C@@H](CCN)C(=O)N(C)[C@@H]1C(=O)N[C@@H](C)C(=O)N[C@H](C(=O)NCC#N)Cc2ccc(OCCN)c(c2)-c2cc1ccc2OCCN` (racemic) [Compound 309, rac-(8S,11S,14S)-3,18-bis(2-aminoethoxy)-N-(cyanomethyl)-11-methyl-14-[methyl-[rac-(2S)-4-amino-2-[[4,6-dimethyl-2-(2-phenylethynyl)pyrimidine-5-carbonyl]amino]butanoyl]amino]-10,13-dioxo-9,12-diazatricyclo[13.3.1.12,6]icosa-1(18),2(20),3,5,15(19),16-hexaene-8-carboxamide] the same measures were 1.1 µM and 0.27 µM.
On the same counts, the results for `Cc1nc(C#Cc2ccc(C(C)(C)C)cc2)nc(C)c1C(=O)N[C@@H](CCN)C(=O)N(C)[C@@H]1C(=O)N[C@@H](C)C(=O)N[C@H](C(=O)NCC#N)Cc2ccc(OCCN)c(c2)-c2cc1ccc2OCCN` (racemic) [Compound 311, rac-(8S,11S,14S)-3,18-bis(2-aminoethoxy)-N-(cyanomethyl)-11-methyl-14-[methyl-[rac-(2S)-4-amino-2-[[2-[2-(4-tert-butylphenyl)ethynyl]-4,6-dimethyl-pyrimidine-5-carbonyl]amino]butanoyl]amino]-10,13-dioxo-9,12-diazatricyclo[13.3.1.12,6]icosa-1(18),2(20),3,5,15(19),16-hexaene-8-carboxamide] are 8.2 µM and 1 µM.
For `CC(C)=Cc1ccc(C#Cc2nc(C)c(C(=O)N[C@@H](CCN)C(=O)N(C)[C@@H]3C(=O)N[C@@H](C)C(=O)N[C@H](C(=O)NCC#N)Cc4ccc(OCCN)c(c4)-c4cc3ccc4OCCN)c(C)n2)cc1` (racemic) [Compound 313, rac-(8S,11S,14S)-3,18-bis(2-aminoethoxy)-N-(cyanomethyl)-11-methyl-14-[methyl-[rac-(2S)-4-amino-2-[[4,6-dimethyl-2-[2-[4-(2-methylprop-1-enyl)phenyl]ethynyl]pyrimidine-5-carbonyl]amino]butanoyl]amino]-10,13-dioxo-9,12-diazatricyclo[13.3.1.12,6]icosa-1(18),2(20),3,5,15(19),16-hexaene-8-carboxamide] the same measures were 0.13 µM and 0.016 µM.
For `Cc1nc(N2CCC(C(C)(C)C)CC2)nc(C)c1C(=O)N[C@@H](CCN)C(=O)N(C)[C@@H]1C(=O)N[C@@H](C)C(=O)N[C@H](C(=O)NCC#N)Cc2ccc(OCCN)c(c2)-c2cc1ccc2OCCN` (racemic) [Compound 315, rac-(8S,11S,14S)-3,18-bis(2-aminoethoxy)-N-(cyanomethyl)-11-methyl-14-[methyl-[rac-(2S)-4-amino-2-[[2-(4-tert-butyl-1-piperidyl)-4,6-dimethyl-pyrimidine-5-carbonyl]amino]butanoyl]amino]-10,13-dioxo-9,12-diazatricyclo[13.3.1.12,6]icosa-1(18),2(20),3,5,15(19),16-hexaene-8-carboxamide], the MIC is 0.25 µM in test [1] and 0.016 µM in test [2].
On the same counts, the results for `Cc1nc(N2CC(C(C)(C)C)C2)nc(C)c1C(=O)N[C@@H](CCN)C(=O)N(C)[C@@H]1C(=O)N[C@@H](C)C(=O)N[C@H](C(=O)NCC#N)Cc2ccc(OCCN)c(c2)-c2cc1ccc2OCCN` (racemic) [Compound 316, rac-(8S,11S,14S)-3,18-bis(2-aminoethoxy)-N-(cyanomethyl)-11-methyl-14-[methyl-[rac-(2S)-4-amino-2-[[2-(3-tert-butylazetidin-1-yl)-4,6-dimethyl-pyrimidine-5-carbonyl]amino]butanoyl]amino]-10,13-dioxo-9,12-diazatricyclo[13.3.1.12,6]icosa-1(18),2(20),3,5,15(19),16-hexaene-8-carboxamide] are 1.5 µM and 0.38 µM.
For `CCCCCOC1CCN(c2nc(C)c(C(=O)N[C@@H](CCN)C(=O)N(C)[C@@H]3C(=O)N[C@@H](C)C(=O)N[C@H](C(=O)NCC#N)Cc4ccc(OCCN)c(c4)-c4cc3ccc4OCCN)c(C)n2)CC1` (racemic) [Compound 317, rac-(8S,11S,14S)-3,18-bis(2-aminoethoxy)-N-(cyanomethyl)-11-methyl-14-[methyl-[rac-(2S)-4-amino-2-[[4,6-dimethyl-2-(4-pentoxy-1-piperidyl)pyrimidine-5-carbonyl]amino]butanoyl]amino]-10,13-dioxo-9,12-diazatricyclo[13.3.1.12,6]icosa-1(18),2(20),3,5,15(19),16-hexaene-8-carboxamide] the same measures were 0.5 µM and 0.047 µM.
On the same counts, the results for `Cc1nc(-n2ccc(C(C)(C)C)cc2=O)nc(C)c1C(=O)N[C@@H](CCN)C(=O)N(C)[C@@H]1C(=O)N[C@@H](C)C(=O)N[C@H](C(=O)NCC#N)Cc2ccc(OCCN)c(c2)-c2cc1ccc2OCCN` (racemic) [Compound 319, rac-(8S,11S,14S)-3,18-bis(2-aminoethoxy)-N-(cyanomethyl)-11-methyl-14-[methyl-[rac-(2S)-4-amino-2-[[2-(4-tert-butyl-2-oxo-1-pyridyl)-4,6-dimethyl-pyrimidine-5-carbonyl]amino]butanoyl]amino]-10,13-dioxo-9,12-diazatricyclo[13.3.1.12,6]icosa-1(18),2(20),3,5,15(19),16-hexaene-8-carboxamide] are 8 µM and 1 µM.
Take `Cc1nc(-c2ccc(N3CCC(C(C)(C)C)CC3)cc2)nc(C)c1C(=O)N[C@@H](CCN)C(=O)N(C)[C@@H]1C(=O)N[C@@H](C)C(=O)N[C@H](C(=O)NCC#N)Cc2ccc(OCCN)c(c2)-c2cc1ccc2OCCN` (racemic) [Compound 320, rac-(8S,11S,14S)-3,18-bis(2-aminoethoxy)-N-(cyanomethyl)-11-methyl-14-[methyl-[rac-(2S)-4-amino-2-[[2-[4-(4-tert-butyl-1-piperidyl)phenyl]-4,6-dimethyl-pyrimidine-5-carbonyl]amino]butanoyl]amino]-10,13-dioxo-9,12-diazatricyclo[13.3.1.12,6]icosa-1(18),2(20),3,5,15(19),16-hexaene-8-carboxamide]: the minimal inhibitory concentration (MIC) in test [1] stood at 0.19 µM; in test [2], 0.016 µM.
On the same counts, the results for `Cc1nc(-c2ccc(N3CCCC3)cc2)nc(C)c1C(=O)N[C@@H](CCN)C(=O)N(C)[C@@H]1C(=O)N[C@@H](C)C(=O)N[C@H](C(=O)NCC#N)Cc2ccc(OCCN)c(c2)-c2cc1ccc2OCCN` (racemic) [Compound 321, rac-(8S,11S,14S)-3,18-bis(2-aminoethoxy)-N-(cyanomethyl)-11-methyl-14-[methyl-[rac-(2S)-4-amino-2-[[4,6-dimethyl-2-(4-pyrrolidin-1-ylphenyl)pyrimidine-5-carbonyl]amino]butanoyl]amino]-10,13-dioxo-9,12-diazatricyclo[13.3.1.12,6]icosa-1(18),2(20),3,5,15(19),16-hexaene-8-carboxamide] are 0.38 µM and 0.047 µM.
As for `Cc1nc(-c2ccc(N3CCC(F)(F)CC3)cc2)nc(C)c1C(=O)N[C@@H](CCN)C(=O)N(C)[C@@H]1C(=O)N[C@@H](C)C(=O)N[C@H](C(=O)NCC#N)Cc2ccc(OCCN)c(c2)-c2cc1ccc2OCCN` (racemic) [Compound 322, rac-(8S,11S,14S)-3,18-bis(2-aminoethoxy)-N-(cyanomethyl)-11-methyl-14-[methyl-[rac-(2S)-4-amino-2-[[2-[4-(4,4-difluoro-1-piperidyl)phenyl]-4,6-dimethyl-pyrimidine-5-carbonyl]amino]butanoyl]amino]-10,13-dioxo-9,12-diazatricyclo[13.3.1.12,6]icosa-1(18),2(20),3,5,15(19),16-hexaene-8-carboxamide], the minimum inhibitory concentration (MIC) stood at 0.6 µM in test [1] and 0.15 µM in test [2].
For `Cc1nc(-c2ccc(N3CCC3)cc2)nc(C)c1C(=O)N[C@@H](CCN)C(=O)N(C)[C@@H]1C(=O)N[C@@H](C)C(=O)N[C@H](C(=O)NCC#N)Cc2ccc(OCCN)c(c2)-c2cc1ccc2OCCN` (racemic) [Compound 323, rac-(8S,11S,14S)-3,18-bis(2-aminoethoxy)-N-(cyanomethyl)-11-methyl-14-[methyl-[rac-(2S)-4-amino-2-[[2-[4-(azetidin-1-yl)phenyl]-4,6-dimethyl-pyrimidine-5-carbonyl]amino]butanoyl]amino]-10,13-dioxo-9,12-diazatricyclo[13.3.1.12,6]icosa-1(18),2(20),3,5,15(19),16-hexaene-8-carboxamide] the same measures were 1 µM and 0.38 µM.
On the same counts, the results for `Cc1nc(-c2ccc(N3CCCCC3)cc2)nc(C)c1C(=O)N[C@@H](CCN)C(=O)N(C)[C@@H]1C(=O)N[C@@H](C)C(=O)N[C@H](C(=O)NCC#N)Cc2ccc(OCCN)c(c2)-c2cc1ccc2OCCN` (racemic) [Compound 324, rac-(8S,11S,14S)-3,18-bis(2-aminoethoxy)-N-(cyanomethyl)-11-methyl-14-[methyl-[rac-(2S)-4-amino-2-[[4,6-dimethyl-2-[4-(1-piperidyl)phenyl]pyrimidine-5-carbonyl]amino]butanoyl]amino]-10,13-dioxo-9,12-diazatricyclo[13.3.1.12,6]icosa-1(18),2(20),3,5,15(19),16-hexaene-8-carboxamide] are 0.13 µM and 0.047 µM.

One may read the MIC as the least concentration at which growth counts as inhibited.
